Assay results as given in patent publication US4933332A, “11-desoxy-17-α-hydroxycorticosterone derivatives” (priority 1988, dated 1990).
Values joined by “and” are separate entries in the source; they are usually repeats but may differ in a detail not shown here. Identical values can stand only once.

Legend:
[1] = test system: L 1210; experiment: Antitumor effect on grafted hemoblastoses (L 1210), extension of lifespan; type: in vivo, mice and rats; details: in vivo, sc
[2] = test system: P-388; experiment: Antitumor effect on grafted hemoblastoses (P-388), extension of lifespan; type: in vivo, mice and rats; details: in vivo
[3] = test system: MOPG-406; experiment: Antitumor effect on grafted hemoblastoses (MOPC-406), extension of lifespan; type: in vivo, mice and rats; details: in vivo
[4] = test system: La; parameters: species or system mice and rats; details: in vivo
[5] = test system: Viral leukosis Mazurenko LMC-1; experiment: Antitumor effect on grafted hemoblastoses (LMC-1), extension of lifespan; type: in vivo, mice and rats; details: in vivo
[6] = test system: S-37; experiment: Antitumor effect on grafted solid tumor S-37; type: in vivo, mice and rats; details: in vivo
[7] = test system: Large intestine adenocarcinoma AKATOL; experiment: Antitumor effect on grafted large intestine adenocarcinoma AKATOL; type: in vivo, mice and rats; details: in vivo
[8] = test system: Lewis lung carcinoma LL; experiment: Antitumor effect on grafted Lewis lung carcinoma LL; type: in vivo, mice and rats; details: in vivo
[9] = test system: Hepatoma G-60; experiment: Antitumor effect on grafted hepatoma G-60; type: in vivo, mice and rats; details: in vivo
[10] = test system: Hepatoma G-61; experiment: Antitumor effect on grafted hepatoma G-61; type: in vivo, mice and rats; details: in vivo
[11] = test system: Alveolar mammary cancer RMK-1; experiment: Antitumor effect on grafted alveolar mammary cancer RMK-1; type: in vivo, mice and rats; details: in vivo
[12] = test system: Lung adenocarcinoma RL-67; experiment: Duration of the antitumor effect, lung adenocarcinoma RL-67; type: in vivo, mice and rats
Excerpt: (§1) For the study of the antitumor activity of the compounds according to the present invention use was made of regrafted hemoblastoses, grafted solid tumors, induced and spontaneous tumors of mice and rats. The following models were used: L 1210, P-388, hemocytoblastosis La, MOPC-406, viral lympholeukosis Mazurenko LMC-1, Ca-755, mammary carcinoma metastasizing into lungs KML, alveolar mammary cancer RMK-1, small intenstine adenocarcinoma AKATON, large intestine adenocarcinoma AKATOL, Lewis lung carcinoma LL, lung adenocarcinoma RL-67, hepatomae G-22c, G-60, G-61, sarcomae S-37 and S-180, DMBA (dimethylbenzanthracene)-induced and spontaneous mammary tumors, and […] (dimethylhydrazine)-induced tumors of the large intestine.
(§2) The studies were carried out on line mice and their first-generation hybrids, as well as on mongrel mice and rats.
(§3) The compounds were administered to the animals hypodermally in kernel oil. For the purpose of comparison, a known hormonocytostatic estracyte (estra-1,3,5-(10)treine-3,17β-diol-3N-[bis-(2-chloroethyl)carbamate-17-sodium phosphate] was used which was administered hypodermally in a solution of a 0.9% NaCl, chlorphenacyl and chloroambucyl which were administered intraperitoneally in a 10% solution of ethanol, sarcolysine (β-[p-di(2-chloroethyl)aminophenyl]-α-alanine hydrochloride)--intraperitoneally in a 0.9% solution of NaCl, prednisolone (pregnadiene-1,4-triol-11β,17α,21-dione-3,20)--per os in a starch size.
(§4) Criteria of the antitumor activity of the compounds according to the present invention are: extension of the lifespan of the animals (ELA, %) and tumor growth inhibition (TGI, %). [formula] T--average lifespan of the treated animals; C--average lifespan of the control animals. [formula] O--average tumor volume in the group of treated animals; K--average tumor volume in the group of control animals.

[13] = test system: Breast carcinoma metastasizing into lungs KML; experiment: Duration of the antitumor effect, breast carcinoma KML; type: in vivo, mice and rats
Excerpt: as §1, §2, §3, §4

[14] = test system: Small intestine adenocarcinoma AKATON; experiment: Duration of the antitumor effect, small intestine adenocarcinoma AKATON; type: in vivo, mice and rats
Excerpt: as §1, §2, §3, §4

[15] = test system: adrenalectomized rat youngsters; experiment: Lifespan of adrenalectomized rat youngsters (biological test for the glucocorticoidal activity); type: in vivo; details: 25-days adrenalectomized rats
[16] = test system: animals; experiment: Estral response in animals; details: in vivo
Excerpt: (§5) The hormonal effect of 11-desoxy-17α-hydroxy-21-[p-di-(2-chloroethyl)aminophenylacetate] corticosterone is associated with exhibition of a glucocorticoidal activity thereby.

[17] = target: T1, cytoplasmatic receptors of glucocorticoids (Homo sapiens, UniProt P04150); experiment: Interaction with cytoplasmatic receptors of glucocorticoids; type: binding
T1 construct: cytoplasmatic receptors of glucocorticoids
T1 sequence (P04150 whole entry): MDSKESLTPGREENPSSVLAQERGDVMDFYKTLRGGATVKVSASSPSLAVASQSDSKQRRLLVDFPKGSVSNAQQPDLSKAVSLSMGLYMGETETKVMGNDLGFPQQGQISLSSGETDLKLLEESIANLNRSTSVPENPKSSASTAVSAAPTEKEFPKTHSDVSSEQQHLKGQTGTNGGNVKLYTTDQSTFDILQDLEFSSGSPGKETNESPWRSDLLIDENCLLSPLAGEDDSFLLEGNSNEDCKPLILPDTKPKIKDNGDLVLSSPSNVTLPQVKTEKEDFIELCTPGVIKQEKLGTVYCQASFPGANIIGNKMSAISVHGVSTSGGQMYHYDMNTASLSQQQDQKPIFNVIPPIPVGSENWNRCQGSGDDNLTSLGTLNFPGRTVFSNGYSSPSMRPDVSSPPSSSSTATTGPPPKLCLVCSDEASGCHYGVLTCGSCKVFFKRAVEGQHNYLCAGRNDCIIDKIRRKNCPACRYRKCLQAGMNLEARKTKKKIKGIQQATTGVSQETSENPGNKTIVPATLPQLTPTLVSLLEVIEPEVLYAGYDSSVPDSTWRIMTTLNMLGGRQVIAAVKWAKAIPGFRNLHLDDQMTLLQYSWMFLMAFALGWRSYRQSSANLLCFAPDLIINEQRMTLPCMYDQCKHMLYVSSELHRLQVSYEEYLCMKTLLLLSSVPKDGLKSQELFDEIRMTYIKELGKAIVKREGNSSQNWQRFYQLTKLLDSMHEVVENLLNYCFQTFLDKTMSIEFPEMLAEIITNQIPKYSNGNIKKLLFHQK
Excerpt: as §5

[18] = test system: cytoplasmatic receptors of glucocorticoids in human lung cancer; experiment: Inhibition of specific combining of [^3 H]-dexamethazone, human lung cancer; type: binding
Excerpt: The inhibition, thereby, of a specific combining of [^3 H]-dexamethazone in tumors of animals reaches 70-100%. 11-Desoxy-17-α-hydroxy-21-[p-di(2-chloroethyl)aminophenylacetate] corticosterone also reacts with cytoplasmatic receptors of glucocorticoids in tumors in human beings.

[19] = test system: acceptor regions of chromatin of tumoral and normal cells (kidney tumor PA, normal kidney); experiment: Penetration into the cell nucleus and interaction with chromatin; parameters: species or system line Wistar; details: kidney tumor PA of rats
[20] = test system: DNA of normal (spleen) cells; experiment: Regeneration of injured DNA in normal tissue vs tumor tissue; details: compared with tumor tissue
[21] = test system: grafted hemoblastoses and solid tumors; experiment: Antitumor activity, summary over the tumor models; type: in vivo, mice and rats
Excerpt: as §1, §2, §3, §4

[22] = in vivo; details: mouse
[23] = Toxicological study, limiting toxicity

SMILES: C[C@]12CCC(=O)C=C1CC[C@@H]1[C@@H]2CC[C@@]2(C)[C@H]1CC[C@]2(O)C(=O)COC(=O)Cc1ccc(N(CCCl)CCCl)cc1 [11-desoxy-17α-hydroxy-21-[p-di(2-chloroethyl)-aminophenylacetate] corticosterone]
- Extension of the lifespan of the animals (ELA) [1]: 31%
- Extension of the lifespan of the animals (ELA) [2]: 81%
- Extension of the lifespan of the animals (ELA) [3]: 76%
- Extension of the lifespan of the animals (ELA) [4]: 105%
- Extension of the lifespan of the animals (ELA) [5]: 344%
- cure [5]: 33%
- Extension of the lifespan [6]: 42%
- Maximum tumor growth inhibition [6]: 99%
- Tumor growth inhibition [6]: 99% and 94% and 91%
- recovery [6]: 28%
- Maximum tumor growth inhibition ([6]; 45 mg/kg): 99%
- Maximum tumor growth inhibition [7]: 98%
- Maximum tumor growth inhibition [8]: 81%
- Extension of the lifespan ([8]; 15 mg/kg): 38%
- Tumor growth inhibition ([8]; 15 mg/kg): 76% and 56% and 39%
- Maximum tumor growth inhibition ([8]; 45 mg/kg): 90%
- Maximum tumor growth inhibition [9]: 99%
- Maximum tumor growth inhibition [10]: 89%
- Maximum tumor growth inhibition [11]: 59%
- Extension of the lifespan ([12]; 45 mg/kg × 1, day 2): 27%
- Tumor growth inhibition ([12]; 45 mg/kg × 1, day 2, day 15 of experiment): 81%
- Tumor growth inhibition ([12]; 45 mg/kg × 1, day 2, day 22 of experiment): 82%
- Tumor growth inhibition ([12]; 45 mg/kg × 1, day 2, day 29 of experiment): 80%
- Extension of the lifespan ([13]; 45 mg/kg × 1, day 10): 57%
- Tumor growth inhibition ([13]; 45 mg/kg × 1, day 10, day 15 of experiment): 80%
- Tumor growth inhibition ([13]; 45 mg/kg × 1, day 10, day 22 of experiment): 53%
- Tumor growth inhibition ([13]; 45 mg/kg × 1, day 10, day 29 of experiment): 61%
- Extension of the lifespan ([14]; 15 mg/kg/24 h × 5, days 2-6): 46%
- Tumor growth inhibition ([14]; 15 mg/kg/24 h × 5, days 2-6, day 15 of experiment): 66%
- Tumor growth inhibition ([14]; 15 mg/kg/24 h × 5, days 2-6, day 22 of experiment): 55%
- Tumor growth inhibition ([14]; 15 mg/kg/24 h × 5, days 2-6, day 29 of experiment): 46%
- extension of lifespan of adrenalectomized rat youngsters [15]: 113%
- estral response [16]: short-time estral response
- Kd [17]: 95 nM
- interaction with cytoplasmatic receptors of glucocorticoids ([17]; [^3 H]-dexamethazone): interacts with cytoplasmatic receptors of glucocorticoids and inhibits combining of [^3 H]-dexamethazone therewith
- inhibition of specific combining of [^3 H]-dexamethazone [18]: 83%
- penetration into cell nucleus and interaction with chromatin [19]: penetrates into the cell nucleus and interacts with acceptor regions of chromatin of both tumoral and normal cells
- regeneration of injured DNA in normal tissue [20]: starts earlier than in the tumor tissue
- inhibits growth of substantially all tumors ([21]; Table 2 summary, grafted solid tumors): 80-99%
- duration of tumor growth inhibition after completion of the treatment course ([21]; Table 3 summary): ≥ 1 month
- extension of the lifespan of the animals as compared to the control ([21]; Table 3 summary): 27-73%
- antitumor effect compared with reference agents ([21]; in vivo): considerably superior, as regards its activity on numerous models, over the known alkylating preparation sarcolysine
- LD50 [22]: 80 mg/kg
- MTD [22]: 44 mg/kg
- limiting toxicity ([23]; degree depends on the dose): gastroenteral and neurotoxicity (diarrhea, vomition, convulsions)
- hematotoxicity ([23]; mouse, in vivo): does not restrict the administration
